The source made the active and inactive calls. No cut-off for these calls is given here.
Key:
[1] = Cytotoxicity against rat PC-12 cells assessed as cell viability at 50 uM by MTT assay relative to control; format: cell-based; details: read-out: Activity
[2] = Cytotoxicity against rat PC-12 cells assessed as cell viability at 30 uM by MTT assay relative to control; format: cell-based; details: read-out: Activity
[3] = target: Glycogen synthase kinase-3 beta (Homo sapiens, UniProt P49841); assay: Inhibition of GSK3beta (unknown origin) measured after 40 mins by ADP-Glo assay
Sequence of Glycogen synthase kinase-3 beta (P49841 whole entry): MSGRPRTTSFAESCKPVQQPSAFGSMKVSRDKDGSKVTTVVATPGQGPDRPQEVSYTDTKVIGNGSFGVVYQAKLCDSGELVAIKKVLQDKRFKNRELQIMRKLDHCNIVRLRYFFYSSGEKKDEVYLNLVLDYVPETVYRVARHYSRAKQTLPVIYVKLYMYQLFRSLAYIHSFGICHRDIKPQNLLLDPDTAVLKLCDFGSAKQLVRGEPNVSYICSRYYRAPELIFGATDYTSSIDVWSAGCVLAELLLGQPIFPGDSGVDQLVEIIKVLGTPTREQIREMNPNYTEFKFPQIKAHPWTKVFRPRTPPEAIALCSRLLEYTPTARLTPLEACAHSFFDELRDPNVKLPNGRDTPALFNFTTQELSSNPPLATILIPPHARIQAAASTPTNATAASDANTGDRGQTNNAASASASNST

BV-2 = assay: Anti-neuroinflammation in mouse BV2 cells assessed as inhibition of LPS-induced NO production preincubated for 1 hr followed by LPS addition measured after 24 hrs by Griess reagent based assay; format: functional, cell-based
PC-12 [4] = assay: Neuroprotective activity against H2O2-induced cytotoxicity in rat PC12 cells assessed as increase in cell viability at 10 uM preincubated for 3 hrs followed by H2O2 addition and measured after 24 hrs by MTT assay (reference value: 24.8 to 41.7%); format: functional
PC-12 [5] = assay: Neuroprotective activity against H2O2-induced cytotoxicity in rat PC12 cells assessed as increase in cell viability at 30 uM preincubated for 3 hrs followed by H2O2 addition and measured after 24 hrs by MTT assay (reference value: 24.8 to 41.7%); format: functional
HepG2 [6] = assay: Increase in glucose consumption in human HepG2 cells at 20 uM after 24 hrs by glucose oxidase assay; format: functional, cell-based
HepG2 [7] = assay: Increase in glucose consumption in human HepG2 cells at 1 mM after 24 hrs by glucose oxidase assay (reference value: 1.36 mM); format: functional

IC50 [3]	IC50 (BV-2)	SMILES	viability at 50 µM [1]	viability at 30 µM [2]	Activity (PC-12 [4])	Activity (PC-12 [5])	Activity (HepG2 [6])	Activity (HepG2 [7])
2.29 µM	6.07 µM	Cc1ccccc1Nc1cc(-c2noc(-c3ccc(NS(=O)(=O)c4ccc(C(C)(C)C)cc4)cc3)n2)ccn1	99.3%	100%	51.5%	69.3%		
2.17 µM	7.55 µM	CC(=O)Nc1cccc(S(=O)(=O)Nc2ccc(-c3nc(-c4ccnc(Nc5ccc(OC(F)(F)F)cc5)c4)no3)cc2)c1	79.2%	93.2%	51.6%	54.7%	inactive	
9.89 µM	6.18 µM	COc1ccc(Nc2cc(-c3noc(-c4ccc(NS(=O)(=O)c5ccc(C(C)(C)C)cc5)cc4)n3)ccn2)cc1	91.6%	98.6%	44.5%	48.1%		
3.12 µM	5.16 µM	O=S(=O)(Nc1ccc(-c2nc(-c3ccnc(Nc4ccc(OC(F)(F)F)cc4)c3)no2)cc1)c1ccc(Br)cc1	82.5%	102%	52.3%	55.8%		
3.24 µM	5.4 µM	CCc1ccc(Nc2cc(-c3noc(-c4ccc(NS(=O)(=O)c5ccc(C(C)(C)C)cc5)cc4)n3)ccn2)cc1	83.6%	98.6%	31.5%	36.6%		
7.63 µM	1.3 µM	O=S(=O)(Nc1ccc(-c2nc(-c3ccnc(Nc4ccc(OC(F)(F)F)cc4)c3)no2)cc1)c1cccs1	94.5%	97.5%	57%	54.9%	Active	
2.07 µM	7.82 µM	CC(C)c1ccc(Nc2cc(-c3noc(-c4ccc(NS(=O)(=O)c5ccc(C(C)(C)C)cc5)cc4)n3)ccn2)cc1	78.8%	98.8%	48.3%	54.4%		
7.66 µM	0.72 µM	CC(C)(C)c1ccc(S(=O)(=O)Nc2ccc(-c3nc(-c4ccnc(Nc5ccc(OC(F)(F)F)cc5)c4)no3)cc2)cc1	95.3%	96.3%	48.1%	63.1%		
0.56 µM	10.9 µM	CC(C)(C)c1ccc(Nc2cc(-c3noc(-c4ccc(NS(=O)(=O)c5ccc(C(C)(C)C)cc5)cc4)n3)ccn2)cc1	99.7%	96.2%	61.3%	70.1%	Active	
0.94 µM	10.6 µM	Cc1cccc(Nc2cc(-c3noc(-c4ccc(NS(=O)(=O)c5ccc(C(C)(C)C)cc5)cc4)n3)ccn2)c1	93.8%	93.8%	52.3%	68.5%		
2.98 µM	6.23 µM	O=S(=O)(Nc1ccc(-c2nc(-c3ccnc(Nc4ccc(OC(F)(F)F)cc4)c3)no2)cc1)c1ccc(Cl)s1	87.9%	97.9%	27.1%	32.7%		
2.63 µM	1.49 µM	O=S(=O)(Nc1ccc(-c2nc(-c3ccnc(Nc4ccc(OC(F)(F)F)cc4)c3)no2)cc1)c1cccc(C(F)(F)F)c1	90.4%	97.4%	54.6%	60.7%	inactive	
		CN(C)C(=N)NC(=N)N [METFORMIN]						3.28 mM
1.49 µM	8.69 µM	CC(C)(C)c1ccc(S(=O)(=O)Nc2ccc(-c3nc(-c4ccnc(Nc5ccc(C(F)(F)F)cc5)c4)no3)cc2)cc1	94.1%	99.1%	63.2%	71.9%		
8.32 µM	2.15 µM	O=[N+]([O-])c1cccc(S(=O)(=O)Nc2ccc(-c3nc(-c4ccnc(Nc5ccc(OC(F)(F)F)cc5)c4)no3)cc2)c1	94.3%	94.3%	53.7%	64.7%		
15.4 µM	3.23 µM	COc1ccc(S(=O)(=O)Nc2ccc(-c3nc(-c4ccnc(Nc5ccc(OC(F)(F)F)cc5)c4)no3)cc2)cc1	92.2%	99.2%	55.8%	68.6%	Active	
2.69 µM	4.41 µM	O=S(=O)(Nc1ccc(-c2nc(-c3ccnc(Nc4ccc(OC(F)(F)F)cc4)c3)no2)cc1)c1ccc(F)cc1	97.9%	99.9%	59.4%	67.3%		
> 50 µM	7.59 µM	O=[N+]([O-])c1ccc(S(=O)(=O)Nc2ccc(-c3nc(-c4ccnc(Nc5ccc(OC(F)(F)F)cc5)c4)no3)cc2)cc1	90.5%	98.5%	38.6%	53.4%	inactive	
2.85 µM	4.4 µM	CC(C)(C)c1ccc(S(=O)(=O)Nc2ccc(-c3nc(-c4ccnc(Nc5ccc(Cl)cc5F)c4)no3)cc2)cc1	88.5%	98.5%	46%	49.6%		
		O=c1c(O)c(-c2ccc(O)c(O)c2)oc2cc(O)cc(O)c12 [QUERCETIN]	99.5%	99.1%	53.4%	65.7%		
1.32 µM	2.44 µM	CC(C)(C)c1ccc(S(=O)(=O)Nc2ccc(-c3nc(-c4ccnc(Nc5ccc(F)c(F)c5)c4)no3)cc2)cc1	92.7%	97.7%	49.6%	60.4%	inactive	
1.21 µM	2.53 µM	O=S(=O)(Nc1ccc(-c2nc(-c3ccnc(Nc4ccc(OC(F)(F)F)cc4)c3)no2)cc1)c1ccccc1OC(F)(F)F	85.6%	91.6%	40.4%	49.8%		
	10.3 µM	Oc1ccc(/C=C/c2cc(O)cc(O)c2)cc1 [RESVERATROL]						
1.19 µM	1.31 µM	COC(=O)c1ccc(S(=O)(=O)Nc2ccc(-c3nc(-c4ccnc(Nc5ccc(OC(F)(F)F)cc5)c4)no3)cc2)s1	98.6%	97.2%	25.6%	30.6%		
8.74 µM	4.22 µM	O=S(=O)(Nc1ccc(-c2nc(-c3ccnc(Nc4ccc(OC(F)(F)F)cc4)c3)no2)cc1)c1ccc(OC(F)(F)F)cc1	100%	98.7%	30.6%	32.4%		
18.9 µM	4.96 µM	O=S(=O)(Nc1ccc(-c2nc(-c3ccnc(Nc4ccc(OC(F)(F)F)cc4)c3)no2)cc1)c1ccc(F)c(Cl)c1	92.1%	98.1%	36.9%	40.1%		
4.56 µM	1.5 µM	Cc1ccc(Nc2cc(-c3noc(-c4ccc(NS(=O)(=O)c5ccc(C(C)(C)C)cc5)cc4)n3)ccn2)cc1	87.9%	97.9%	59.4%	64.4%		
3.93 µM	8.94 µM	CC(C)(C)c1ccc(S(=O)(=O)Nc2ccc(-c3nc(-c4ccnc(Nc5ccc(F)c(C(F)(F)F)c5)c4)no3)cc2)cc1	75.9%	98.9%	48.9%	61.7%		
